# In patent US9012443B2 (Amgen Inc., priority 2011, dated 2015):
# Target: Nav 1.7 (Homo sapiens (Human), UniProt Q15858)
# Experiment: Nav 1.7 in vitro PX assay (PatchXpress whole cell voltage clamp)
# Type: cell-based
# Details: 293 cells, human Nav1.7, partially inactivated state; read-out: Nav1.7 PX IC50 IP
# Description: Nav 1.7 In Vitro PX Assay
# 293 cells stably transfected with human Nav1.7 were recorded in whole cell voltage clamp mode with the PatchXpress automated electrophysiology system (Molecular Devices, LLC, Sunnyvale, Calif.). Compound effects were measured on a partially inactivated state of the sodium channel. Cells were clamped to a holding potential yielding 20 to 50% inactivation. To elicit sodium current, channels were activated by pulsing to −10 mV for 20 msec. […] A single concentration of test compound was applied to cells for a duration of 3 minutes. Peak sodium current was measured at the end of the compound addition period to determine percent inhibition. Three to five cells were tested per concentration, and IC50 curves were fitted to percent inhibition as a function of concentration.
# Nav 1.7, sequence (Q15858 whole entry): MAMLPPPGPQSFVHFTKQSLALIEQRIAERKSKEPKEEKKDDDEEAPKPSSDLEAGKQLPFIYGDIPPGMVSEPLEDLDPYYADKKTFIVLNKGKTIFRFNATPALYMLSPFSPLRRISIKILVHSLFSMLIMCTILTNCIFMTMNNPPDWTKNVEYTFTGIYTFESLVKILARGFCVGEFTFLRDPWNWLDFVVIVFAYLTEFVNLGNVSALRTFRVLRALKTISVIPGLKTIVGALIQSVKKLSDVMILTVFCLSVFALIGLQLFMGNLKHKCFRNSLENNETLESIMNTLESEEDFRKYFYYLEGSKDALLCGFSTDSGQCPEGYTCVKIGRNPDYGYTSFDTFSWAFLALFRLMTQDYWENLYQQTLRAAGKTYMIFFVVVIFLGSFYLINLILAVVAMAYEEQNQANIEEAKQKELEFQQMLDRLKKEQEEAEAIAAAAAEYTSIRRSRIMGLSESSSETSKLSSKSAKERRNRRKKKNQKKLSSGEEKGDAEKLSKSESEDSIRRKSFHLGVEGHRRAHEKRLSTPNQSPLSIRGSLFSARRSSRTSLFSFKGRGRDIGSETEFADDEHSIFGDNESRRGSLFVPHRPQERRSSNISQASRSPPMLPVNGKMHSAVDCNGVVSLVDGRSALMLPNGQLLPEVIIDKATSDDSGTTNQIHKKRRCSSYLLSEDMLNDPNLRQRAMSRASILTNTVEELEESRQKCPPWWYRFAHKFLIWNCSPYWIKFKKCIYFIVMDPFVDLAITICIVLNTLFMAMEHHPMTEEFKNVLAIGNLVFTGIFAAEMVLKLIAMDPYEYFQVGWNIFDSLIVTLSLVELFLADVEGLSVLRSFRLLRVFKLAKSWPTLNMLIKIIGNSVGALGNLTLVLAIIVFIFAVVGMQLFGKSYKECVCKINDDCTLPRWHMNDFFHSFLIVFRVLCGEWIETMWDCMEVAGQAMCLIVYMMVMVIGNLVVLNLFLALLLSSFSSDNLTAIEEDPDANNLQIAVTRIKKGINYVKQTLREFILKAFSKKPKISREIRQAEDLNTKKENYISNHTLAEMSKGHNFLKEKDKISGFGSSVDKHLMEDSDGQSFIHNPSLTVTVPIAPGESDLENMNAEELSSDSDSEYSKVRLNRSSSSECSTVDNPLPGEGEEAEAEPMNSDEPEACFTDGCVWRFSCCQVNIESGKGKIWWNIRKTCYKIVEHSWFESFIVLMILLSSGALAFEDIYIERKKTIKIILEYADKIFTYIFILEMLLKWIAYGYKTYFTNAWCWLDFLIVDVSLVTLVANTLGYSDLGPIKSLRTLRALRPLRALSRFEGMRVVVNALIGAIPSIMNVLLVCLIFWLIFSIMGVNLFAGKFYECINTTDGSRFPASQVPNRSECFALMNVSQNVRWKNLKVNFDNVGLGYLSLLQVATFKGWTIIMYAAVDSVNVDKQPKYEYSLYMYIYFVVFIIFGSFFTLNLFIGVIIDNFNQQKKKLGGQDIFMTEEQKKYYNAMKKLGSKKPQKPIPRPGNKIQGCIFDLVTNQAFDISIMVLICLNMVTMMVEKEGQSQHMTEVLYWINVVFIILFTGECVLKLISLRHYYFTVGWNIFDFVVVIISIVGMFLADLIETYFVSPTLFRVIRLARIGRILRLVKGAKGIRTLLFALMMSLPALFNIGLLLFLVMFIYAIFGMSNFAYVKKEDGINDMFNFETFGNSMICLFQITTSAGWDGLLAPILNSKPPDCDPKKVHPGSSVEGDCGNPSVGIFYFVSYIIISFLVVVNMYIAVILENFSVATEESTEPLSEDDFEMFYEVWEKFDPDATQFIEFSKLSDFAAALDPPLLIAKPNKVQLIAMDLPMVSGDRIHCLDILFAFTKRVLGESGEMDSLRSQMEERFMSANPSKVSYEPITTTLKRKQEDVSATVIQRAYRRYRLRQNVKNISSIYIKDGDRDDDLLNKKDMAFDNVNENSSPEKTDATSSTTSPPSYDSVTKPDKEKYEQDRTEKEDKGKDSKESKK
row,Structure (SMILES),IC50 [µM]
1,"O=S(=O)(Nc1nccs1)c1ccc2c(-c3ccc(F)cc3Oc3ccccn3)nccc2c1 [Example 191, 1-(4-FLUORO-2-(PYRIDIN-2-YLOXY)PHENYL)-N-(THIAZOL-2-YL)ISOQUINOLINE-6-SULFONAMIDE]",13.9
2,"COc1ccc(-c2ccc(-c3nccc4cc(S(=O)(=O)Nc5ccncn5)ccc34)c(OC)c2)cn1 [Example 483, 1-(2-METHOXY-4-(6-METHOXYPYRIDIN-3-YL)PHENYL)-N-(PYRIMIDIN-4-YL)ISOQUINOLINE-6-SULFONAMIDE]",1.4
3,"COc1cc(C(F)(F)F)ccc1-c1ccnc2cc(S(=O)(=O)Nc3ccncn3)ccc12 [Example 279, 4-(2-METHOXY-4-(TRIFLUOROMETHYL)PHENYL)-N-(PYRIMIDIN-4-YL)QUINOLINE-7-SULFONAMIDE]",0.58
4,"N#CC(F)Oc1cc(F)ccc1-c1nccc2cc(S(=O)(=O)Nc3nccs3)ccc12 (centres unmarked) [Example 416, 1-(2-(CYANOFLUOROMETHOXY)-4-FLUOROPHENYL)-N-(THIAZOL-2-YL)ISOQUINOLINE-6-SULFONAMIDE]",1.22
5,"COc1cc(C(F)(F)F)ccc1-c1ccnc2cc(S(=O)(=O)Nc3nccs3)c(OC)cc12 [Example 327, 6-METHOXY-4-(2-METHOXY-4-(TRIFLUOROMETHYL)PHENYL)-N-(THIAZOL-2-YL)QUINOLINE-7-SULFONAMIDE]",2.34
6,"COc1cc(C(F)(F)F)ccc1-c1ccnc2cc(S(=O)(=O)Nc3nccs3)ncc12 [Example 294, 4-(2-METHOXY-4-(TRIFLUOROMETHYL)PHENYL)-N-(THIAZOL-2-YL)-1,6-NAPHTHYRIDINE-7-SULFONAMIDE]",2.5
7,Cc1cc(C#N)ccc1-c1nccc2cc(S(=O)(=O)Nc3ncns3)ccc12 [Example 359],2.38
8,"COc1cc(C(F)F)c(Cl)cc1-c1nccc2cc(S(=O)(=O)Nc3ccncn3)ccc12 [Example 457, 1-(5-CHLORO-4-(DIFLUOROMETHYL)-2-METHOXYPHENYL)-N-(PYRIMIDIN-4-YL)ISOQUINOLINE-6-SULFONAMIDE]",0.828
9,"COc1cc(C(F)(F)F)ccc1-c1nccc2cc(S(=O)(=O)Nc3ccc(F)cn3)ccc12 [Example 427, N-(5-FLUOROPYRIDIN-2-YL)-1-(2-METHOXY-4-(TRIFLUOROMETHYL)PHENYL)ISOQUINOLINE-6-SULFONAMIDE]",4.42
10,"COc1cc(C(F)(F)F)ccc1-c1n[nH]c(=O)c2cc(S(=O)(=O)Nc3ccncn3)ccc12 [Example 506, 1-(2-METHOXY-4-(TRIFLUOROMETHYL)PHENYL)-4-OXO-N-(PYRIMIDIN-4-YL)-3,4-DIHYDROPHTHALAZINE-6-SULFONAMIDE]",3
11,"COc1cc(C(F)(F)F)ccc1-c1nccc2cc(S(=O)(=O)Nc3cocn3)ccc12 [Example 440, 1-(2-METHOXY-4-(TRIFLUOROMETHYL)PHENYL)-N-(OXAZOL-4-YL)ISOQUINOLINE-6-SULFONAMIDE]",4.1
12,"COc1cc(-c2cccnc2C)ccc1-c1nccc2cc(S(=O)(=O)Nc3ccncn3)ccc12 [Example 476, 1-(2-METHOXY-4-(2-METHYLPYRIDIN-3-YL)PHENYL)-N-(PYRIMIDIN-4-YL)ISOQUINOLINE-6-SULFONAMIDE]",2.89
13,"COc1ccccc1-c1ncc(C#N)c2cc(S(=O)(=O)Nc3nccs3)ccc12 [Example 400, 4-CYANO-1-(2-METHOXYPHENYL)-N-(THIAZOL-2-YL)ISOQUINOLINE-6-SULFONAMIDE]",1.33
14,"COc1cc(-c2ccc(F)nc2)ccc1-c1nccc2cc(S(=O)(=O)Nc3ccncn3)ccc12 [Example 352, 1-(4-(6-FLUOROPYRIDIN-3-YL)-2-METHOXYPHENYL)-N-(PYRIMIDIN-4-YL)ISOQUINOLINE-6-SULFONAMIDE]",1.87
15,"COc1cc(F)ccc1-c1ncc(C#N)c2cc(S(=O)(=O)Nc3nccs3)ccc12 [Example 399, 4-CYANO-1-(4-FLUORO-2-METHOXYPHENYL)-N-(THIAZOL-2-YL)ISOQUINOLINE-6-SULFONAMIDE]",0.682
16,"Cc1ccccc1-c1nccc2cc(S(=O)(=O)Nc3nccs3)ccc12 [Example 178, N-(THIAZOL-2-YL)-1-(O-TOLYL)ISOQUINOLINE-6-SULFONAMIDE]",1.85
17,"COc1cc(C#N)ccc1-c1nc(C)nc2cc(S(=O)(=O)Nc3nccs3)ccc12 [Example 517, 4-(4-CYANO-2-METHOXYPHENYL)-2-METHYL-N-(THIAZOL-2-YL)QUINAZOLINE-7-SULFONAMIDE]",1.28
18,"COc1nc(Cl)ccc1-c1nccc2cc(S(=O)(=O)Nc3nccs3)ccc12 [Example 408, 1-(6-CHLORO-2-METHOXYPYRIDIN-3-YL)-N-(THIAZOL-2-YL)ISOQUINOLINE-6-SULFONAMIDE]",0.986
19,"COc1cc(C(F)(F)F)ccc1-c1cnnc2cc(S(=O)(=O)Nc3ccncn3)ccc12 [Example 260, 4-(2-METHOXY-4-(TRIFLUOROMETHYL)PHENYL)-N-(PYRIMIDIN-4-YL)CINNOLINE-7-SULFONAMIDE]",1.27
20,"N#Cc1cc(C(F)(F)F)ccc1-c1nccc2cc(S(=O)(=O)Nc3nccs3)ccc12 [Example 386, 1-(2-CYANO-4-(TRIFLUOROMETHYL)PHENYL)-N-(THIAZOL-2-YL)ISOQUINOLINE-6-SULFONAMIDE]",1.39
21,"COc1cc(C(F)(F)F)ccc1-c1ccnc2cc(S(=O)(=O)Nc3nccs3)cc(C)c12 [Example 282, 4-(2-METHOXY-4-(TRIFLUOROMETHYL)PHENYL)-5-METHYL-N-(THIAZOL-2-YL)QUINOLINE-7-SULFONAMIDE]",3.29
22,"COc1cc(C(F)(F)F)ccc1-c1c[nH]c(=O)c2cc(S(=O)(=O)Nc3nccs3)ccc12 [Example 544, 4-(2-METHOXY-4-(TRIFLUOROMETHYL)PHENYL)-1-OXO-N-(THIAZOL-2-YL)-1,2-DIHYDROISOQUINOLINE-7-SULFONAMIDE]",0.709
23,"COc1ncc(Cl)cc1-c1ncnc2cc(S(=O)(=O)Nc3nccs3)ccc12 [Example 541, 4-(5-CHLORO-2-METHOXYPYRIDIN-3-YL)-N-(THIAZOL-2-YL)QUINAZOLINE-7-SULFONAMIDE]",1.8
24,Cc1cc(Cl)ccc1-c1nccc2cc(S(=O)(=O)Nc3ccncn3)ccc12 [Example 357],1.85
25,"COc1ccccc1-c1ncc(O)c2cc(S(=O)(=O)Nc3nccs3)ccc12 [Example 234, 4-HYDROXY-1-(2-METHOXYPHENYL)-N-(THIAZOL-2-YL)ISOQUINOLINE-6-SULFONAMIDE 2,2,2-TRIFLUOROACETATE]",0.98
26,"N#CCOc1cc(Cl)ccc1-c1nccc2cc(S(=O)(=O)Nc3ccncn3)ccc12 [Example 376, 1-(4-CHLORO-2-(CYANOMETHOXY)PHENYL)-N-(PYRIMIDIN-4-YL)ISOQUINOLINE-6-SULFONAMIDE 2,2,2-TRIFLUOROACETATE]",2.94
27,"COc1cc(-c2ccc(C)nc2)ccc1-c1nccc2cc(S(=O)(=O)Nc3ccncn3)ccc12 [Example 477, 1-(2-METHOXY-4-(6-METHYLPYRIDIN-3-YL)PHENYL)-N-(PYRIMIDIN-4-YL)ISOQUINOLINE-6-SULFONAMIDE]",4.04
28,"COC[C@H]1CCCN1c1ncnc2cc(S(=O)(=O)Nc3nccs3)ccc12 [Example 534, (R)-4-(2-(METHOXYMETHYL)PYRROLIDIN-1-YL)-N-(THIAZOL-2-YL)QUINAZOLINE-7-SULFONAMIDE]",29.3
29,"O=S(=O)(Nc1nccs1)c1ccc2c(-c3ccc(C(F)(F)F)cc3O)ncnc2c1 [Example 533, 4-(2-HYDROXY-4-(TRIFLUOROMETHYL)PHENYL)-N-(THIAZOL-2-YL)QUINAZOLINE-7-SULFONAMIDE]",4.09
